The source of these data is PMC9030254, “Target Hopping from Protein Kinases to PXR: Identification of Small-Molecule Protein Kinase Inhibitors as Selective Modulators of Pregnane X Receptor from TüKIC Library” (Cells, 2022).

Holding throughout (test): Kinase profiling
Holding throughout (format): biochemical

One test addresses T1, ACVR1 (Homo sapiens, UniProt Q04771).
T1 construct: purchased ProQinase (Freiburg, Germany)
T1 sequence (Q04771 21-509): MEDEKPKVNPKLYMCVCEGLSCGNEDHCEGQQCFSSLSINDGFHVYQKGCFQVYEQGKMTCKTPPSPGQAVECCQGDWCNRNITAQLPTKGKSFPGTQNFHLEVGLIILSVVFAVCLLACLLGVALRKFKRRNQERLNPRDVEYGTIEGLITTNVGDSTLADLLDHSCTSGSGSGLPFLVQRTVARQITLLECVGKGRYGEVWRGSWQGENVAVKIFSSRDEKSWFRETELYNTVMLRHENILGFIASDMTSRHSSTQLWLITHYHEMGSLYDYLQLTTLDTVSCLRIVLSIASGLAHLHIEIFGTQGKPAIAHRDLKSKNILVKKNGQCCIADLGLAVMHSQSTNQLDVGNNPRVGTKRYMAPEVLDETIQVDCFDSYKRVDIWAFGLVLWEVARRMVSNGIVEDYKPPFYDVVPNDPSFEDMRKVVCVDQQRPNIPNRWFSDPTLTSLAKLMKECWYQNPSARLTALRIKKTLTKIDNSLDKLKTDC
The procedure: (§1) The analysis was performed by ProQinase (Freiburg, Germany).

Another test deals with T2, CDK6/CycD1 (Homo sapiens, UniProt Q00534).
T2 construct: purchased ProQinase (Freiburg, Germany)
The procedure: as §1

In a further test the target is T3, DAPK1 (Homo sapiens, UniProt P53355).
T3 construct: purchased ProQinase (Freiburg, Germany)
The procedure: as §1

The next test deals with T4, EPHA3 (Homo sapiens, UniProt P29320).
T4 construct: purchased ProQinase (Freiburg, Germany)
T4 sequence (P29320 21-983): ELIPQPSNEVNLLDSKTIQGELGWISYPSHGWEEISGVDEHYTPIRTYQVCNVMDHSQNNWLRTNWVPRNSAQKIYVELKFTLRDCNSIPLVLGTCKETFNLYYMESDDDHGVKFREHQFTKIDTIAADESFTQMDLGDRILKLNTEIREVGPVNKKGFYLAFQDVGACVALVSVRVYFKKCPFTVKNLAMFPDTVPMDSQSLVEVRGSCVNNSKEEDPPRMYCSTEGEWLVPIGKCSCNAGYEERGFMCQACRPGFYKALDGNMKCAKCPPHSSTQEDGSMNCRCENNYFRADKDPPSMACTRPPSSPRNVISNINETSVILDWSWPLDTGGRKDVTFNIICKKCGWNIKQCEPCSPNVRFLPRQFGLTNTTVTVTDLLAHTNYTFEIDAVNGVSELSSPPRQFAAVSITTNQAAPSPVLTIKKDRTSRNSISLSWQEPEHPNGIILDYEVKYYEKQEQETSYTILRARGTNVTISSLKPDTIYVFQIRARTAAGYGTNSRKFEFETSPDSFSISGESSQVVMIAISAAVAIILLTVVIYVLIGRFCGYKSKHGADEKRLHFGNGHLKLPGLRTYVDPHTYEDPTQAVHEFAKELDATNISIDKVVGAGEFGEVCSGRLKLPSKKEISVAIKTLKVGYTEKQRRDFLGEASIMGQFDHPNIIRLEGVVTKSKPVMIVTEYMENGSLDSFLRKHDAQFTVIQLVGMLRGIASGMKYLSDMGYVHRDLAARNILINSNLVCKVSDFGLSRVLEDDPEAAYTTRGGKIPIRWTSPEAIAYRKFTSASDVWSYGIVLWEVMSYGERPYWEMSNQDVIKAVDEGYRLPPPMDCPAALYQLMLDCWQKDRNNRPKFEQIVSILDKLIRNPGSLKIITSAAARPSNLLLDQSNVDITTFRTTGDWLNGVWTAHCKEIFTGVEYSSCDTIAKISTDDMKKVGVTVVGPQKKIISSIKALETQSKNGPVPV
The procedure:
as §1

For another test, the target named is T5, FAK (Homo sapiens, UniProt Q05397).
T5 construct: purchased ProQinase (Freiburg, Germany)
The procedure:
as §1

Another test has as its target T6, FER (Homo sapiens, UniProt P16591).
T6 construct: purchased ProQinase (Freiburg, Germany)
The procedure:
as §1

Another test concerns the target T7, HRI (Homo sapiens, UniProt Q9BQI3).
T7 construct: purchased ProQinase (Freiburg, Germany)
The procedure:
as §1

The target of the next test is T8, IKKalpha (Homo sapiens, UniProt O15111).
T8 construct: purchased ProQinase (Freiburg, Germany)
T8 sequence (O15111 1-745): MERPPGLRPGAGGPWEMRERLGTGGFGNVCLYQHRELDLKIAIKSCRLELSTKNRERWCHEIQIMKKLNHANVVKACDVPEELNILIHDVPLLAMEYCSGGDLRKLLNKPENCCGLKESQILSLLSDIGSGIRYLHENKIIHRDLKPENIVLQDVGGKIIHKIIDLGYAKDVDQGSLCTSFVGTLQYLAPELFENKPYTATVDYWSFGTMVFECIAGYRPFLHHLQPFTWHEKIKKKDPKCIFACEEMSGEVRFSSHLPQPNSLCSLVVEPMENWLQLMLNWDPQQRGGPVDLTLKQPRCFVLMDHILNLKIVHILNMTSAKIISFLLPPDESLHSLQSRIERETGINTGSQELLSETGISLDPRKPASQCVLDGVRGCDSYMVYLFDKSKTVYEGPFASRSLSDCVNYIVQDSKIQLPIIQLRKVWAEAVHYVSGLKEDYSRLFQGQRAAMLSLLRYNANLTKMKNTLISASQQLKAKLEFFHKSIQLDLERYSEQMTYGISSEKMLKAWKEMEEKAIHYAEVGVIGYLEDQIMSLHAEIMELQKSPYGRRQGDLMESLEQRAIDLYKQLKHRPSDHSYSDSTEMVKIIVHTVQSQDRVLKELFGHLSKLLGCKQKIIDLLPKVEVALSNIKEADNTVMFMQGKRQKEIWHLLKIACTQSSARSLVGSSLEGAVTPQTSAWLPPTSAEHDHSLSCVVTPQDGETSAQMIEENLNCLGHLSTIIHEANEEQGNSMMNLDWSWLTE
The procedure: as §1

For the next test, the target named is T9, PASK (Homo sapiens, UniProt Q96RG2).
T9 construct: purchased ProQinase (Freiburg, Germany)
The procedure:
as §1

The target in a further test is T10, PLK1 (Homo sapiens, UniProt P53350).
T10 construct: purchased ProQinase (Freiburg, Germany)
The procedure:
as §1

For a further test, the target named is T11, RPS6KA4 (Homo sapiens, UniProt O75676).
T11 construct: purchased ProQinase (Freiburg, Germany)
The procedure: as §1

A further test has as its target T12, S6Kbeta (Homo sapiens, UniProt Q9UBS0).
T12 construct: purchased ProQinase (Freiburg, Germany)
The procedure:
as §1

T6 sequence (P16591 whole entry): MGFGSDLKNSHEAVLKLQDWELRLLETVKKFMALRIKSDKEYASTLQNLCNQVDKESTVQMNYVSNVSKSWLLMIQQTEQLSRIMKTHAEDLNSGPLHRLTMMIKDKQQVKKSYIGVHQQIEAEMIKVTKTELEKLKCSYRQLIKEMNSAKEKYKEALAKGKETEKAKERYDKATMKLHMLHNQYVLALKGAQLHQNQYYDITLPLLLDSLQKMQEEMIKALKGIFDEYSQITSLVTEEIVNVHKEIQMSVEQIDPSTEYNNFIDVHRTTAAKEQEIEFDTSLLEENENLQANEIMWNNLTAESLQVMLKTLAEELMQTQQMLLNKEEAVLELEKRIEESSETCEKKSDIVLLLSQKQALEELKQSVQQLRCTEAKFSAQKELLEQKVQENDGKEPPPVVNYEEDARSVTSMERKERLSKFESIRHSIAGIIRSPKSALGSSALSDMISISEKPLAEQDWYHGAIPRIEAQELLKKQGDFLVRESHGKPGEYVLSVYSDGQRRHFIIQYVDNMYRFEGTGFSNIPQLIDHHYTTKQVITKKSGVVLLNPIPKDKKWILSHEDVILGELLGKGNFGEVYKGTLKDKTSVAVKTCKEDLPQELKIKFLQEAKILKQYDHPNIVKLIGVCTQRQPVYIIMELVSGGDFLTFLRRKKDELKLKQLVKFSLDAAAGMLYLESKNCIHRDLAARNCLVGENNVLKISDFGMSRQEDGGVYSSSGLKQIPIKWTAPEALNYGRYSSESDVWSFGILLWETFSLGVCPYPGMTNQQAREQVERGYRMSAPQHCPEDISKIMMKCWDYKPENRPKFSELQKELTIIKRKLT
T11 sequence (O75676 whole entry): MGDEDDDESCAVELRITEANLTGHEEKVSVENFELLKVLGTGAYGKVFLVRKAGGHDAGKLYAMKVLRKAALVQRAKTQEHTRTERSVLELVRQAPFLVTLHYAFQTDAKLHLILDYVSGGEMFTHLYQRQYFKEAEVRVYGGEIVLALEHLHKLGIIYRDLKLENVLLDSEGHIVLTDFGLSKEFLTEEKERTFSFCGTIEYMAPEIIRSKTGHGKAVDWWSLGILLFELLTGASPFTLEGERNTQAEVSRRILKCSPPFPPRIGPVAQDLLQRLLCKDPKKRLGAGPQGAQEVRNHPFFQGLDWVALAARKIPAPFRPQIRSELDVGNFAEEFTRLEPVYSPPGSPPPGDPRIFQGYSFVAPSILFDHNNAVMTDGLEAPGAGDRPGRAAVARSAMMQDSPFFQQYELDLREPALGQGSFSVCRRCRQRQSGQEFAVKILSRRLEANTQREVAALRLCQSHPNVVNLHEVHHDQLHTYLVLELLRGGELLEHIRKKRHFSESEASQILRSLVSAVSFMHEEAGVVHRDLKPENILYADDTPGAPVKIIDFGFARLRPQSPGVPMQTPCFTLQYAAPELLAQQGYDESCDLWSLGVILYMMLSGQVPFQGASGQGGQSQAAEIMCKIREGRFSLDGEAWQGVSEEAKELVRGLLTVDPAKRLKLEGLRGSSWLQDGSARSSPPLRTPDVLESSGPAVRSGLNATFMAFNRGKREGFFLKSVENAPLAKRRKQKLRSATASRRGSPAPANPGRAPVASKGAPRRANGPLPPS
T5 sequence (Q05397 whole entry): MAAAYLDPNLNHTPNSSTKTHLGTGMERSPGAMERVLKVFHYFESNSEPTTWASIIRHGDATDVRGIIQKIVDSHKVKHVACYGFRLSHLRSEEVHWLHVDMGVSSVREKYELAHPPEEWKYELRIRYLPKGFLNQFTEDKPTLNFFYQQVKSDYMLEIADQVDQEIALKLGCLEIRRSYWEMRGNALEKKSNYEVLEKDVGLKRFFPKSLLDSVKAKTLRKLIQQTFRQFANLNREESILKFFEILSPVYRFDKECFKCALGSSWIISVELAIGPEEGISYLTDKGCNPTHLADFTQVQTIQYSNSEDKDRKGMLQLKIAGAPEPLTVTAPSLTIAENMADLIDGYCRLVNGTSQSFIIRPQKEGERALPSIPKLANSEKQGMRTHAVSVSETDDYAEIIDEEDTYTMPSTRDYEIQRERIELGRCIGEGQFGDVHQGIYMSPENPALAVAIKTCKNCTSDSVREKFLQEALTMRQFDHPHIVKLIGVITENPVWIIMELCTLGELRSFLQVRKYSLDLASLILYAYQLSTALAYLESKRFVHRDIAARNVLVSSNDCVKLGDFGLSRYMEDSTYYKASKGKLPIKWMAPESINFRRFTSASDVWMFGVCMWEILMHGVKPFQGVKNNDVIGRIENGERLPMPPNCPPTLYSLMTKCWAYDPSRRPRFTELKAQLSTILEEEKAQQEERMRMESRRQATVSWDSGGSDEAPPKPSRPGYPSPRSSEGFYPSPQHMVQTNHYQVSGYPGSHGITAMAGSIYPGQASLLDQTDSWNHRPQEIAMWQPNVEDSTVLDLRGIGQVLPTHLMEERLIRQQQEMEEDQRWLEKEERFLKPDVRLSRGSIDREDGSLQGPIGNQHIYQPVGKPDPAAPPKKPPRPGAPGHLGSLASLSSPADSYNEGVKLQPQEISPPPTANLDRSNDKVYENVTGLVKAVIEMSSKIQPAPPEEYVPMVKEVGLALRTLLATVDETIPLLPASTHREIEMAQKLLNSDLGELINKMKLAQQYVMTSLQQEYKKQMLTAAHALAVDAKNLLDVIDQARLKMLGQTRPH
T2 sequence (Q00534 whole entry): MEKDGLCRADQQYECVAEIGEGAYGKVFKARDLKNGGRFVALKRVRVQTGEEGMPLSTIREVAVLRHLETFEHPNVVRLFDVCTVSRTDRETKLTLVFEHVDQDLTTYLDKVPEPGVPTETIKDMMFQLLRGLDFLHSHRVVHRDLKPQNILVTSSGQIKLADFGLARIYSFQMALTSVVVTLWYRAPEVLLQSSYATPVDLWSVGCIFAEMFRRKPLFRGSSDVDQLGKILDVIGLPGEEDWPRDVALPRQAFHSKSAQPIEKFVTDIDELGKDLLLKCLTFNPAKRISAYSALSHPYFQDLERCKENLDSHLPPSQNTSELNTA
T2 sequence (P24385 whole entry partner): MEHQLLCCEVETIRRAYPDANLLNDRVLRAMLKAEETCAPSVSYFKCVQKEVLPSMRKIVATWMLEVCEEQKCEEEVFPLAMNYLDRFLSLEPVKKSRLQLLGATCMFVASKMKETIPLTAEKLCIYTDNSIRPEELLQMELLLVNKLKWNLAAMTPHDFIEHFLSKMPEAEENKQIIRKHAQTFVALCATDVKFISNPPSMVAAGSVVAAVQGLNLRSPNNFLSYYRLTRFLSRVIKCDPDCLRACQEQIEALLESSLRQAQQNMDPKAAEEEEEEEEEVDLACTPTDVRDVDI
T12 sequence (Q9UBS0 whole entry): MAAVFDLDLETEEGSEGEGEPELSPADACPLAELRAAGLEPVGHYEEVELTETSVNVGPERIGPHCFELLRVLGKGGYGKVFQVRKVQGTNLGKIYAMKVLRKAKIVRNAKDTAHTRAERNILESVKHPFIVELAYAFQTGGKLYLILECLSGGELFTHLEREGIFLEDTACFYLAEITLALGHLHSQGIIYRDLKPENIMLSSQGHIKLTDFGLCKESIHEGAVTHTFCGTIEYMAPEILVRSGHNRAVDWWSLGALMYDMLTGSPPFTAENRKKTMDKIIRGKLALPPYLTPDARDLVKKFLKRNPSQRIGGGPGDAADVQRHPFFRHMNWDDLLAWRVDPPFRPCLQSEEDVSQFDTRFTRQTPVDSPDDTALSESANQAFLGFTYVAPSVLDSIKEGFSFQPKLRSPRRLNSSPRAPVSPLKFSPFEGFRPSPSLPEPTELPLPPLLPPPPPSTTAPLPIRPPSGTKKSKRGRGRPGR
T10 sequence (P53350 whole entry): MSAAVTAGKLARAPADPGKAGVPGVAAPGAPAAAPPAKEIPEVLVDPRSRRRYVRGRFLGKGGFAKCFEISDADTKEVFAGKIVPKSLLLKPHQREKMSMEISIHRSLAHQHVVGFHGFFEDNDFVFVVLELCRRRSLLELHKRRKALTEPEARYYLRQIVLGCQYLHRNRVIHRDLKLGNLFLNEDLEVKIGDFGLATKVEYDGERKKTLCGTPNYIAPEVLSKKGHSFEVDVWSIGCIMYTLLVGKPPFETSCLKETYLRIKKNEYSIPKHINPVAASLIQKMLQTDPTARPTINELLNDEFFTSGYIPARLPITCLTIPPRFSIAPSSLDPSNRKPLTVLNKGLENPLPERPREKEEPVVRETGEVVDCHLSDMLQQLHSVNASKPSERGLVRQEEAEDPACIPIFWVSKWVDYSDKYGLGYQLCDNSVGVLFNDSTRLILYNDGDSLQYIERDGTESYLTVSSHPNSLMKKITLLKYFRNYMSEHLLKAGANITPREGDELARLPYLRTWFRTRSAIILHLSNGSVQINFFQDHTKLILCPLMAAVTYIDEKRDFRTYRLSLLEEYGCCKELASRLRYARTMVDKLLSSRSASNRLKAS
T7 sequence (Q9BQI3 whole entry): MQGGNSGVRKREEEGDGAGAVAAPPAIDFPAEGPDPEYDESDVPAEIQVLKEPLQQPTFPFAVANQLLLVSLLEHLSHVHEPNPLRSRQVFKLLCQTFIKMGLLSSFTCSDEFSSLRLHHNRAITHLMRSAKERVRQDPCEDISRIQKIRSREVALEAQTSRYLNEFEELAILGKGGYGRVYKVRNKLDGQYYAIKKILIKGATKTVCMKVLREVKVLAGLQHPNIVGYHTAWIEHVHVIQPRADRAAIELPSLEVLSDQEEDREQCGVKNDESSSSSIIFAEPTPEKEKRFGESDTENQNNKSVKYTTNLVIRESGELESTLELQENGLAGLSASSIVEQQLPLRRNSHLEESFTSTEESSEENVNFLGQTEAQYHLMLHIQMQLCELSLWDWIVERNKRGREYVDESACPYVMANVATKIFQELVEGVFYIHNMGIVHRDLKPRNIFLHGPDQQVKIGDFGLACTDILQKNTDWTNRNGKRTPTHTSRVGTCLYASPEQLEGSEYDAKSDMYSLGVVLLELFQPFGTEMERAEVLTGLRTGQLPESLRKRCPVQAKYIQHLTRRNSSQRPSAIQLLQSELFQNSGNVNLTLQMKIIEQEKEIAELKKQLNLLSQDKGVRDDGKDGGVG

In the case of `O=C(Cc1ccccc1)Nc1ccc(F)c(Nc2ccc3c(c2)CCCCC3=O)c1` [Compound 100], the Residual activity was 93 % of control on ACVR1 (1.0E-05 M); 97 % of control on ACVR1 (1.0E-06 M); 89 % of control at CDK6/CycD1 (1.0E-05 M); 93 % of control at CDK6/CycD1 (1.0E-06 M); 110 % of control on DAPK1 (1.0E-05 M); 127 % of control on DAPK1 (1.0E-06 M). For the same compound, the Residual activity on EPHA3 (1.0E-05 M) is listed as 86 % of control; at EPHA3 (1.0E-06 M), 96 % of control; on FAK (1.0E-05 M), 88 % of control; on FAK (1.0E-06 M), 116 % of control; on FER (1.0E-05 M), 94 % of control; at FER (1.0E-06 M) it was 101 % of control. Also, the Residual activity is 123 % of control at HRI (1.0E-05 M); 120 % of control on HRI (1.0E-06 M); 102 % of control on IKKalpha (1.0E-05 M); 102 % of control on IKKalpha (1.0E-06 M); 97 % of control at PASK (1.0E-05 M); 107 % of control on PASK (1.0E-06 M). For the same compound, the Residual activity at PLK1 (1.0E-05 M) is on record as 90 % of control; at PLK1 (1.0E-06 M), 103 % of control; on RPS6KA4 (1.0E-05 M), 93 % of control; on RPS6KA4 (1.0E-06 M) it was 93 % of control; on S6Kbeta (1.0E-05 M) it was 85 % of control; on S6Kbeta (1.0E-06 M) it was 96 % of control.

`O=C(Nc1ccc(F)c(Nc2ccc3c(c2)CCCCC3=O)c1)c1cccc(F)c1` [Compound 109]: the Residual activity on ACVR1 (1.0E-05 M) was 97 % of control; at ACVR1 (1.0E-06 M), 88 % of control; at CDK6/CycD1 (1.0E-05 M), 90 % of control; at CDK6/CycD1 (1.0E-06 M), 84 % of control; at DAPK1 (1.0E-05 M), 102 % of control; at DAPK1 (1.0E-06 M) it was 109 % of control. The Residual activity was 94 % of control at EPHA3 (1.0E-05 M); 92 % of control at EPHA3 (1.0E-06 M); 88 % of control at FAK (1.0E-05 M); 104 % of control at FAK (1.0E-06 M); 90 % of control on FER (1.0E-05 M); 110 % of control at FER (1.0E-06 M). Further, the Residual activity on HRI (1.0E-05 M) is 129 % of control; on HRI (1.0E-06 M), 98 % of control; on IKKalpha (1.0E-05 M), 93 % of control; at IKKalpha (1.0E-06 M), 104 % of control; at PASK (1.0E-05 M), 97 % of control; at PASK (1.0E-06 M), 95 % of control. The Residual activity at PLK1 (1.0E-05 M) is 96 % of control; at PLK1 (1.0E-06 M), 94 % of control; on RPS6KA4 (1.0E-05 M), 95 % of control; on RPS6KA4 (1.0E-06 M), 95 % of control; on S6Kbeta (1.0E-05 M), 96 % of control; on S6Kbeta (1.0E-06 M), 102 % of control.
